Reference: US20220184164A1, “PREPARATIONS CONTAINING BERRY EXTRACTS FOR USE IN THE PROPHYLAXIS AND/OR TREATMENT OF VIRAL INFECTIONS CAUSED BY HERPESVIRIDAE” (Evonik Operations GmbH, priority 2019, published 2022)

How the values were obtained:
[1] = tested on: HSV-1; assay: Anti-viral assay: GFP-encoding HSV-1 infection of pre-treated BHK cells, infected cells counted; assay type: cell-based, herpes simplex virus 1
Procedure: (§1) BHK cells were incubated with decreasing concentration of the solubilized test compounds for approx. 1 h. All concentrations were analyzed by six independent replicates on a black 96-well plate (PerkinElmer). Cells were infected with GFP-encoding wildtype HSV-1 virus and incubated for two days. Two days after infection, HSV-1-infected cells and GFP expressing cells were directly counted using the PerkinElmer Ensight system with optical cell culture plates. The instrument was controlled by […]. Anti-viral assays for HHV8 and mCMV were performed accordingly.
The cells were subsequently infected with GFP-encoding HSV at a multiplicity of infection of 2.5, and infected GFP-expressing cells were counted one day after infection using the PerkinElmer Ensight system. […] Thus, the sugar is not required as potential co-factor for drug uptake.

[2] = tested on: HHV-8; assay: Anti-viral assay: GFP-encoding HHV-8 infection, infected cells counted; assay type: cell-based, Herpes virus 8
Procedure: as §1
The concentrations of materials were again adjusted to the same levels of anthocyanins (except the single berry extracts). No treatment or only maltodextrin served as controls. The cells were subsequently infected with GFP-encoding HHV-8, and infected GFP-expressing cells were counted two days after infection using the PerkinElmer Ensight system.

[3] = tested on: HSV-1 related intracellular β-Amyloid deposition in SH-SY5Y (neuroblastoma) cells; assay: β-Amyloid assay: intracellular deposition of β-Amyloid in HHV-1-infected SH-SY5Y cells (immunofluorescence, qualitative); assay type: cell-based; settings: 500, 250 and 125 μg/ml
Procedure: Samples were fixed using Histofix and permeabilized with 0.05% Triton X-100 in phosphate-buffered saline for 5 min. Blocking steps were performed with 3% bovine serum albumin for 1 h followed by primary antibody incubation with rabbit polyclonal anti-beta amyloid 1-42 and polyclonal goat anti-green fluorescent protein. Antibodies were diluted 1:100 and 1:1000, respectively, and were incubated overnight. To visualize β-Amyloid antibodies, donkey anti-rabbit AlexaFluor® 555 secondary antibodies were used (diluted 1:400); to detect the GFP antibodies donkey anti-goat AlexaFluor® 647 secondary antibodies (diluted 1:400) were used. The samples were then mounted in Fluoromount-G™ with DAPI and analyzed with the BZ-9000 BIOREVO System (Keyence).
Herpes virus infections and specifically HSV-1 infections are correlated to intracellular R-Amyloid and tau-protein deposition in cells of the CNS in progression of Alzheimer's disease. […] Therefore, in a first step the infectability of SH-SYSY neuroblastoma cells with HHV-1 was tested. After incubation of SH-SYSY cultures with HHV-1 (MOI=8), an infection rate of >90% (qualitatively) was detected that came along with high intracellular β-Amyloid deposition.

Row | Molecule | inhibition of HSV-1 by single anthocyanins [1] | viral inhibition of HHV-8 (in words) [2] | infected and β-Amyloid-positive cells [3]
1 | OC[C@H]1O[C@@H](Oc2cc3c(O)cc(O)cc3[o+]c2-c2ccc(O)c(O)c2)[C@H](O)[C@@H](O)[C@@H]1O [C3G, Cyanidin 3-glucoside] | Neither C3G nor D3Gal or Pet3G inhibited HSV-1 | – | –
2 | OC[C@H]1OC(Oc2cc3c(O)cc(O)cc3[o+]c2-c2cc(O)c(O)c(O)c2)[C@H](O)C(O)C1O (stereo partly drawn) [D3G, Delphinidin 3-glucoside] | decreased viral infectivity like Healthberry® 865 | identified as an active ingredient in Healthberry® 865 | –
3 | OC[C@H]1O[C@@H](Oc2cc3c(O)cc(O)cc3[o+]c2-c2cc(O)c(O)c(O)c2)[C@H](O)[C@@H](O)[C@H]1O [D3Gal, Delphinidin 3-galactoside] | Neither C3G nor D3Gal or Pet3G inhibited HSV-1 | – | –
4 | COc1cc(-c2[o+]c3cc(O)cc(O)c3cc2O[C@@H]2O[C@H](CO)[C@@H](O)[C@H](O)[C@H]2O)cc(O)c1O [Pet3G, Petunidin 3-glucoside] | Neither C3G nor D3Gal or Pet3G inhibited HSV-1 | – | –
5 | maltodextrin | – | – | HHV-1-infected cells were mostly β-Amyloid-positive
